Results published in patent publication US20090068150A1, “LACTIC ACID BACTERIA CULTURE OF MUNG BEAN AND THE PREPARATION METHOD OF THE SAME, AND THE COSMETIC COMPOSITION COMPRISING THE SAME” (Doosan Corporation, priority 2005, published 2009).

What was measured:
CD-1 mouse = test: Inflammation (skin stimulus) alleviating effect on TPA-induced ear inflammation; format: in vivo
Experimental: In order to examine the inflammation (skin stimulus) alleviating effect of the lactic acid bacteria culture of mung bean containing the mung bean extract and GABA, which was obtained in the embodiment 2, a following test was conducted according to a method used by Sheu et al. (The Journal of Investigative Dermatology, 118, pp 94-101, 2002).
First, CD-1 mouse (male & female, 6-8 weeks, Charles River, USA) were used as test objects, and as stimulus material, 10 μl of TPA (12-O-tetradecanonylphorbol-13-acetate) 0.03% (wt/vol. in acetone) solution was applied to inside and outside of both ears of the test animals. Due to the treatment material, the ear was thickened and there occurred an inflammatory reaction. After that, as a positive control group, clofibrate (1 mM) and Wy14643 (1 mM) which are agonists of PPAR CL (Sheu et al., The Journal of Investigative Dermatology, 118, pp 94-101, 2002), and as a test material, the lactic acid bacteria culture of mung bean in the embodiment 2 were applied to the both surfaces of the ears in an amount of […], respectively, at 45 minutes and 4 hours after the inflammation induction.

skin = conditions: applied to the skin; cited from earlier work

For `Cc1cccc(Nc2cc(Cl)nc(SCC(=O)O)n2)c1C` [WY14643], the “ear swelling vs control group treated with TPA only (FIG. 4)” value (CD-1 mouse; TPA + WY14643 (1 mM), applied 45 minutes and 4 hours after induction) is listed as “the swelling was decreased”, the “inflammation alleviation, H&E dyed tissue slide (FIG. 5)” value (CD-1 mouse; positive controls 1 mM (group C Wy14643, group B clofibrate), vs TPA only) is listed as “the inflammation was also alleviated” and the “skin inflammation due to stimulus materials after application to the skin” value (skin) is listed as “the inflammation due to stimulus materials is decreased”.
